Assay results from paper PMC8206089, “Split NanoLuc technology allows quantitation of interactions between PII protein and its receptors with unprecedented sensitivity and reveals transient interactions” (Scientific Reports, 2021).

Experiments:
[1] = biological target: T1, NAGK-SmBiT in complex with PII-LgBiT (ligand on NAGK) (Synechocystis sp. PCC 6803, UniProt P73326); assay: NanoBiT luminescence, stimulation of PII-NAGK complex formation; format: binding; conditions: 0-50 mM NAG, 2 mM ATP; 10 pM PII-LgBiT, 5 nM NAGK-SmBiT; pH 7.6, 2 mM MgCl2, 30 °C
T1 construct: gene argB; hexameric NAGK with N-terminal His6, C-terminal 16-aa linker and SmBiT; PII trimer with C-terminal Strep-tag and LgBiT; both from E. coli Lemo21; with Nitrogen regulatory protein P-II

[2] = biological target: T1, NAGK-SmBiT in complex with PII-LgBiT (ligand on NAGK); assay: NanoBiT luminescence, Arg titration of PII-NAGK complex; format: binding; conditions: 2 mM ATP or 1 mM ATP/1 mM ADP; allosteric; pH 7.6, 2 mM MgCl2, 30 °C

T1 sequence (P73326 whole entry): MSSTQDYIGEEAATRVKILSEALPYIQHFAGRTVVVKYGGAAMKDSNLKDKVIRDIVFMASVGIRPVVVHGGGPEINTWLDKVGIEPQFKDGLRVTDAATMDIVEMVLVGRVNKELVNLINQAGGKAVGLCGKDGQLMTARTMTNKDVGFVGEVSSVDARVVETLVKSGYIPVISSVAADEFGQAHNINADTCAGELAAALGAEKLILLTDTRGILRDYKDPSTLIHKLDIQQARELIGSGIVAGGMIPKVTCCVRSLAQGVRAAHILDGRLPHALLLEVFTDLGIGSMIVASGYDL
T1 sequence (Q55247 whole entry partner): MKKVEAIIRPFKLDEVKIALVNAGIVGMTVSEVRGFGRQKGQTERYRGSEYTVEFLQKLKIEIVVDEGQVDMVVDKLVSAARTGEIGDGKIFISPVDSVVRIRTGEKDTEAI

Row | Structure (SMILES) | NanoBiT luminescence, stimulation of PII-NAGK complex formation [1] | NanoBiT luminescence, Arg titration of PII-NAGK complex [2]
1 | CC(=O)N[C@@H](CCC(=O)O)C(=O)O [NAG] | increasing NAG concentrations caused a dramatic increase in PII-NAGK interaction | –
2 | N=C(N)NCCC[C@H](N)C(=O)O [Arg] | – | arginine was titrated to PII-LgBiT-NAGK-SmBiT complexes and luminescence was recorded
